The results in this text go back to patent publication US20040161861A1, “Glycoconjugate sensors” (priority 2002, published 2004).

Details in all cases: colorimetric ELISA, OD at 405 nm, FIG. 5
The subject of one test is B. thuringiensis spores. Format: binding, Bacillus thuringiensis.
For another test, the system named is B. cereus spores. Format: binding, Bacillus cereus.
For a further test, the system named is B. subtilis spores. Format: binding, Bacillus subtilis.
The next test has as its system B. pumilus spores. The test is classed as binding.

With Fuc α1-3 GlcNAc β-PAA-flu, the “binding match between spores and immobilized glycoconjugate” value in the test on B. thuringiensis spores is reported as “bound”.
Regarding Fuc α 1-4 GlcNAc β-PAA-flu, in the test with B. thuringiensis spores, the “binding match between spores and immobilized glycoconjugate” value is given as “bound”.
For the substance Gal α 1-3 GalNAc α-PAA-flu, the “binding match between spores and immobilized glycoconjugate” value in the test on B. cereus spores is recorded as “bound”.
Take Gal β1-3 Gal β-PAA-flu: the “binding match between spores and immobilized glycoconjugate” value with B. subtilis spores is on record as “bound”.
For the substance Gal β1-3 GalNAc β-PAA-flu, the “binding match between spores and immobilized glycoconjugate” value in the test on B. pumilus spores is on record as “bound”.
As for Gal β1-3GalNAc α-PAA-flu, in the test on B. pumilus spores, the “binding match between spores and immobilized glycoconjugate” value is reported as “bound”.
As for Gal β 1-4 Glc β-PAA-flu, the “binding match between spores and immobilized glycoconjugate” value in the test on B. cereus spores is reported as “bound”.
As for GlcNAc β 1-4 GlcNAc β-PAA-flu, the “binding match between spores and immobilized glycoconjugate” value in the test with B. subtilis spores is “bound”.
